Here are results for one compound from patent US7160880B1, “Short-acting benzodiazepines” (CeNeS Limited, priority 1999, dated 2007).

The target in test [1] is benzodiazepine receptor (benzodiazepine site on the GABAA receptor complex). Put plainly: Benzodiazepine radioligand (3H-flunitrazepam) binding assay. The following applies: read-out: Benzodiazepine receptor binding Ki; 3H-flunitrazepam, brain membrane homogenates, 90 minutes at 4° C.; tissue species of the tabulated values not stated.
The subject of the next test is male Wistar rats. Put plainly: Loss of the righting reflex (LRR) in rats. The format is in vivo, rat. Particulars: i.v. via tail vein, dose in the range of 10–100 mg/kg. As for the experimental part: The intrinsic efficacy of a compound was assessed by its ability to cause loss of the righting reflex (LRR) in rats, an effect associated with benzodiazepine full agonism.
Method: Subjects for these studies were male Wistar rats, weighing approximately 250–350 grams. To assess loss of righting reflex (LRR), animals were placed in plastic restrainers and test compounds were administered i.v. via the tail vain. Subjects were immediately removed from the restrainer and the time to onset of loss of righting reflex was recorded. LRR was defined as the loss of an animal's ability to right itself when placed in a supine position. […] Compounds producing LRR were evaluated by three measures: 1) Time to onset of LRR (as described above) 2) Time to recover from LRR. An animal met this criteria when able to right itself three consecutive times after losing its righting reflex 3) Total recovery time. Total recovery was measured by the animal's ability to walk without ataxia as well as its ability to pull itself up three consecutive times when suspended from a horizontal wire. […] The therapeutically useful dosage range for administration to mammals is 0.01 to 5.0 mg/kg of body weight.

SMILES strings stand for the structures.

In general, Ki refers to a dissociation constant, usually derived from enzyme kinetics or from competition with a known ligand. `COC(=O)CC[C@@H]1N=C(c2ccccc2F)c2cc(Cl)ccc2-n2c(C)cnc21` [Example 1c-2]: in test [1], the Ki lay in the range of 1 to 50 nM. Also, the “loss of righting reflex (LRR)” value with male Wistar rats was “producing loss-of-righting”.
